This note sets out measurements from ChEMBL document CHEMBL4400514, “Medicinal chemistry of metal chelating fragments in metalloenzyme active sites: A perspective” (Eur J Med Chem, 2019).

The inhibition is how much of the control response was suppressed. Usually IC50 stands for the concentration needed to halve the response being measured. Low values mean inhibition by little substance, high ones a need for much substance.

Molecules are shown by their SMILES.

The target in assay [1] is T1, Deoxyhypusine hydroxylase (Plasmodium falciparum (isolate 3D7)) (UniProt Q8I701).
T1 sequence (whole entry): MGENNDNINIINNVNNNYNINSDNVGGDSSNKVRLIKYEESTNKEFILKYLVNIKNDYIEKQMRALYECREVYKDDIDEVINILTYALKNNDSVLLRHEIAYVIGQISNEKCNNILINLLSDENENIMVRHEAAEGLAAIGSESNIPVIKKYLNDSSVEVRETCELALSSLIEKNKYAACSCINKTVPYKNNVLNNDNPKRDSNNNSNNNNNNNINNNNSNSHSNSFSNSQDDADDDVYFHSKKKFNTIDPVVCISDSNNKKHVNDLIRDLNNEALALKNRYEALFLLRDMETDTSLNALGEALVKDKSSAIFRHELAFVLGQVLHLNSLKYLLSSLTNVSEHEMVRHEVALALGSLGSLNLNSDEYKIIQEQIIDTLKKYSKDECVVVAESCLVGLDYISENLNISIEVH
As to the kind of experiment: Inhibition of Plasmodium falciparum DOHH expressed in Escherichia coli BL21 cells at 1 mM after 24 hrs by GC/MS analysis relative to control.

Assay [2] addresses T2, Deoxyhypusine hydroxylase (Homo sapiens, UniProt Q9BU89).
T2 sequence (Q9BU89 whole entry): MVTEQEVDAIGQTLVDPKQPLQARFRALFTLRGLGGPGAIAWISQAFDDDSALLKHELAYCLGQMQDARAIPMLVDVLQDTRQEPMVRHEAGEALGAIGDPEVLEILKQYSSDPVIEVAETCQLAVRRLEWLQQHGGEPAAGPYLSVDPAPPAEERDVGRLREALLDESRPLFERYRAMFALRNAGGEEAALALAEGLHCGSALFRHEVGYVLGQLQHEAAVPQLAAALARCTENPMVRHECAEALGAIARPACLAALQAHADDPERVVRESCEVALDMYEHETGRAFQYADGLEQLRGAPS
As to the kind of experiment: Inhibition of DOHH (unknown origin).

Regarding `CCOc1ccc(-c2nonc2NC(=O)c2cccc(C)c2)cc1OCC`, the inhibition in assay [1] is 43.3%.

`COc1ccc(-c2nc3cc(Cc4ccc5[nH]c(-c6ccc(OC)cc6)nc5c4)ccc3[nH]2)cc1` displayed an inhibition in assay [1] of 38.8%.

In turn, `c1ccc(Cn2c(/N=N/c3c(Nc4ccccc4)ccc4ccccc34)nc3ccccc32)cc1` displayed an inhibition in assay [1] of 35.9%.

Compound `Cc1cc(C2CCCCC2)n(O)c(=O)c1` [CICLOPIROX] gave a concentration for half-maximal inhibition (IC50) in assay [2] of 5 to 200 µM.

`Cc1c(O)c(=O)ccn1C` [DEFERIPRONE]: in assay [2], the IC50 lay in the range of 5 to 200 µM.

Turning to `CC(=O)N(O)CCCCCNC(=O)CCC(=O)N(O)CCCCCNC(=O)CCC(=O)N(O)CCCCCN` [DEFEROXAMINE], the IC50 in assay [2] lay within 5 to 200 µM.

In the case of `c1ccc(-c2ccccn2)nc1` [DIPYRIDYL], the 50% inhibitory concentration (IC50) in assay [2] fell in the range of 5 to 200 µM.

In assay [2], `N[C@@H](Cn1ccc(=O)c(O)c1)C(=O)O` [L-MIMOSINE] displayed an IC50 of 5 to 200 µM.
